Experimental data taken from ChEMBL document CHEMBL5360614, “Quinoline Thiourea-Based Zinc Ionophores with Antibacterial Activity” (J Med Chem, 2023).
Values after ≈ are worked out from the molar mass of the structure shown. Active and inactive are the calls of the source. The calls are words filed in the database; no cut-off is given here.

What was measured:
[1] = tested on: Staphylococcus aureus; test: (§1) Antibacterial activity against gentamicin-and methicillin-resistant Staphylococcus aureus ATCC 33592 assessed as reduction in bacterial growth incubated for 14 to 16 hrs in presence of 200 uM ZnCl2 by microbroth dilution method; assay type: functional; settings: time 14-16 hrs
[2] = tested on: Staphylococcus aureus; test: as §1, with “1 uM 1-(2-(1H-benzo[d]imidazol-1-yl)quinolin-8-yl)-3-(3,5-bis(trifluoromethyl)phenyl)thiourea and 100” for “200”; assay type: functional; settings: time 14-16 hrs
[3] = tested on: Staphylococcus aureus; test: as §1, with “2 uM 1-(2-(1H-benzo[d]imidazol-1-yl)quinolin-8-yl)-3-(3,5-bis(trifluoromethyl)phenyl)thiourea and 50” for “200”; assay type: functional; settings: time 14-16 hrs
[4] = tested on: Staphylococcus aureus; test: Antibacterial activity against gentamicin-and methicillin-resistant Staphylococcus aureus ATCC 33592 assessed as reduction in bacterial growth incubated for 14 to 16 hrs in presence of 100 uM ZnCl2 by microbroth dilution method; assay type: functional; settings: time 14-16 hrs
[5] = tested on: Staphylococcus aureus; test: as §1, with “1 uM 1-(2-(1H-benzo[d]imidazol-1-yl)quinolin-8-yl)-3-(3,5-bis(trifluoromethyl)phenyl)thiourea and 50” for “200”; assay type: functional; settings: time 14-16 hrs
[6] = tested on: Staphylococcus aureus; test: as §1, with “of 1 uM 1-(2-(1H-benzo[d]imidazol-1-yl)quinolin-8-yl)-3-(3,5-bis(trifluoromethyl)phenyl)thiourea and” for “of”; assay type: functional; settings: time 14-16 hrs
[7] = tested on: Staphylococcus aureus; test: Antibacterial activity against gentamicin-and methicillin-resistant Staphylococcus aureus ATCC 33592 assessed as reduction in bacterial growth incubated for 14 to 16 hrs by microbroth dilution method; assay type: functional; settings: time 14-16 hrs
[8] = tested on: Staphylococcus aureus; test: as §1, with “1” for “200”, “1-(2-(1H-benzo[d]imidazol-1-yl)quinolin-8-yl)-3-(3,5-bis(trifluoromethyl)phenyl)thiourea” for “ZnCl2”; assay type: functional; settings: time 14-16 hrs
[9] = tested on: Staphylococcus aureus; test: Potency index, ratio of compound MIC to compound MIC in presence of 1 uM 1-(2-(1H-benzo[d]imidazol-1-yl)quinolin-8-yl)-3-(3,5-bis(trifluoromethyl)phenyl)thiourea and 200 uM ZnCl2 for antibacterial activity against gentamicin-and methicillin-resistant Staphylococcus aureus ATCC 33592; assay type: functional
[10] = tested on: Staphylococcus aureus; test: In vivo antibacterial activity against Staphylococcus aureus MTCC-96 infected in Balb/c mouse assessed as hepatocyte distribution at 523.455 microM/Kg, iv for 7 days by hematoxylin and eosin staining based microscopic analysis; assay type: functional, organism-based; settings: time 7.0 day
[11] = tested on: Staphylococcus aureus; test: In vivo antibacterial activity against Staphylococcus aureus MTCC-96 infected in Balb/c mouse assessed as less dilated portal vein in liver at 523.455 microM/Kg, iv for 7 days by hematoxylin and eosin staining based microscopic analysis; assay type: functional, organism-based; settings: time 7.0 day
[12] = tested on: Staphylococcus aureus; test: In vivo antibacterial activity against Staphylococcus aureus MTCC-96 infected in Balb/c mouse assessed as bacterial load by measuring CFU in liver at 523.455 microM/Kg, iv for 7 days by CFU assay (Rvb= 719 CFU); assay type: functional, organism-based; settings: time 7.0 day
[13] = tested on: Staphylococcus aureus; test: In vivo antibacterial activity against Staphylococcus aureus MTCC-96 infected in Balb/c mouse assessed as liver central vein with minimum infiltration at 523.455 microM/Kg, iv for 7 days by hematoxylin and eosin staining based microscopic analysis; assay type: functional, organism-based; settings: time 7.0 day
[14] = tested on: Staphylococcus aureus; test: In vivo antibacterial activity against Staphylococcus aureus MTCC-96 infected in Balb/c mouse assessed as less dilated hepatic artery at 523.455 microM/Kg, iv for 7 days by hematoxylin and eosin staining based microscopic analysis; assay type: functional, organism-based; settings: time 7.0 day
[15] = tested on: Escherichia coli; test: Antibacterial activity against Escherichia coli MTCC 1687 assessed as reduction in bacterial growth incubated for 14 to 16 hrs by microbroth dilution method; assay type: functional; settings: time 14-16 hrs
[16] = tested on: Staphylococcus aureus; test: Antibacterial activity against Staphylococcus aureus MTCC-96 assessed as reduction in bacterial growth incubated for 14 to 16 hrs by microbroth dilution method; assay type: functional; settings: time 14-16 hrs
[17] = tested on: Staphylococcus aureus; test: Disruption of membrane integrity in Staphylococcus aureus MTCC-96 assessed as increase in fluorescence intensity by PI staining based fluorescence analysis; assay type: functional, organism-based
[18] = tested on: Cell membrane; test: Induction of cell membrane depolarization in Staphylococcus aureus MTCC-96 assessed as increase in fluorescence intensity at 30 uM by DiSC3-5 dye based fluorescence method; assay type: subcellular; settings: filed as opener

CC1(C)S[C@@H]2[C@H](NC(=O)[C@H](N)c3ccccc3)C(=O)N2[C@H]1C(=O)O [AMPICILLIN]
MIC [1]: 134 µM | MIC [2]: 0.03 µM | MIC [3]: 0.03 µM | MIC [4]: 134 µM | MIC [5]: 2 µM | MIC [6]: 0.03 µM | MIC [7]: 134 µM (≈ 46.8 µg/mL) | MIC [8]: 2.1 µM | Ratio [9]: 4466

GENTAMICIN
Activity [10]: Active | Activity [11]: Active | Activity [12]: 62 CFU | Activity [13]: Active | Activity [14]: Active

O=C(O)c1cn(C2CC2)c2cc(N3CCNCC3)c(F)cc2c1=O [CIPROFLOXACIN]
MIC [15]: 0.51 µM (≈ 0.169 µg/mL) | MIC [7]: 1.5 µM (≈ 0.497 µg/mL) | MIC [16]: 0.45 µM (≈ 0.149 µg/mL) | Activity [17]: inactive

CC(C)[C@@H]1NC(=O)[C@H](C)OC(=O)[C@@H](C(C)C)NC(=O)[C@@H](C(C)C)OC(=O)[C@H](C(C)C)NC(=O)[C@H](C)OC(=O)[C@@H](C(C)C)NC(=O)[C@@H](C(C)C)OC(=O)[C@H](C(C)C)NC(=O)[C@H](C)OC(=O)[C@@H](C(C)C)NC(=O)[C@@H](C(C)C)OC1=O
Activity [18]: Active
